Source: US20110319491A1, “ANHYDROUS DEPIGMENTING COMPOSITIONS COMPRISING, WITHIN THE FATTY PHASE THEREOF, A SOLUBILIZED PHENOLIC COMPOUND AND A RETINOID” (GALDERMA RESEARCH & DEVELOPMENT, priority 2009, published 2011)

Columns and labels:
Type in all cases: physicochemical
[1] = Rucinol solubilities in solvents (HPLC)
[2] = Stability of rucinol in solvent oils and lipophilic surfactants (HPLC assay); conditions: T0 = 100%
From the text: Assay technique by HPLC against reference substance.
The initial time (T0) is considered as 100%.

[3] = Chemical stability of the formulations (HPLC assay of the active agents); conditions: in composition of Example 3
Protocol: The chemical stability is measured by assaying the active agents by external calibration in HPLC and the results are expressed as a % of […] relative to the theoretical value.

CCCCc1ccc(O)cc1O [Rucinol, 4-butylresorcinol]
Max. solubility (% w/w) ([1]; in Arlamol E): 48.2 % w/w
Max. solubility (% w/w) ([1]; in Caprylic capric triglycerides): 47.8 % w/w
Max. solubility (% w/w) ([1]; in Castor oil): 46.4 % w/w
Max. solubility (% w/w) ([1]; in Cremophor EL): 49.7 % w/w
Max. solubility (% w/w) ([1]; in Crodamol DA): 64.1 % w/w
Max. solubility (% w/w) ([1]; in Ethanol): >75.5 % w/w
Max. solubility (% w/w) ([1]; in Glycerol): 63.8 % w/w
Max. solubility (% w/w) ([1]; in Labrasol): 60.9 % w/w
Max. solubility (% w/w) ([1]; in Lauroglycol): 52.8 % w/w
Max. solubility (% w/w) ([1]; in PEG 400): 61.6 % w/w
Max. solubility (% w/w) ([1]; in Propylene glycol): >67.7 % w/w
Solubility of rucinol (in words) ([1]; in all the solvents tested): very good solubility
T + 1 month (% LC) ([2]; in Arlamol E, 40° C.): 94.4 % LC
T + 1 month (% LC) ([2]; in Arlamol E, RT): 95 % LC
T + 1 month (% LC) ([2]; in Cremophor EL, 40° C.): 96.2 % LC
T + 1 month (% LC) ([2]; in Cremophor EL, RT): 96 % LC
T + 1 month (% LC) ([2]; in Ethanol, 40° C.): 105 % LC
T + 1 month (% LC) ([2]; in Ethanol, RT): 100.4 % LC
T + 1 month (% LC) ([2]; in Labrasol, 40° C.): 100.8 % LC
T + 1 month (% LC) ([2]; in Labrasol, RT): 97.8 % LC
T + 1 month (% LC) ([2]; in Miglyol, 40° C.): 99.8 % LC
T + 1 month (% LC) ([2]; in Miglyol, RT): 91.2 % LC
Chemical stability: rucinol assay, % relative to the theoretical value ([3]; 4° C., T + 1 M): 99.4%
Chemical stability: rucinol assay, % relative to the theoretical value ([3]; 4° C., T + 2 M): 97.4%
Chemical stability: rucinol assay, % relative to the theoretical value ([3]; 40° C., T + 1 M): 98.8%
Chemical stability: rucinol assay, % relative to the theoretical value ([3]; 40° C., T + 2 M): 97.8%
Chemical stability: rucinol assay, % relative to the theoretical value ([3]; RT, T0): 98.1%
Chemical stability: rucinol assay, % relative to the theoretical value ([3]; RT, T + 1 M): 100.6%
Chemical stability: rucinol assay, % relative to the theoretical value ([3]; RT, T + 2 M): 101.6%
